Experimental data: EP3815699A1, “NEW MEANS AND METHODS FOR THERAPY AND DIAGNOSIS OF […]” (Technische Universität München, priority 2019, dated 2021)
“Also recorded” adds a separate entry of the source. Where two headings read alike, the source gives them in different places.

Columns and labels:
HAdV-C5 = assay: Virus yield / progeny production by quantitative E2A immunofluorescence staining in 293 cells (Fig. 1B); type: cell-based
Description: (§1) • Figure 1: ATO efficiently reduces HAdV infectivity (cf. Example 1). H1299 cells were infected with HAdV-C5 wt at a multiplicity of 5 FFU/cell, treated with the depicted concentrations of ATO at 2 h.p.i., fixed 48 h.p.i. with 4 % PFA and double labeled with mAb B6-8 (α-E2A) and pAb L133 (α-Capsid). Primary antibodies were detected using Alexa488 (E2A, green) and Alexa568 (Capsid, red) conjugated secondary antibodies. (A) The number of E2A and Capsid expressing cells, respectively, was counted in n=40 overview pictures (not shown), normalized to untreated, infected cells, and represented in bar charts. Bar charts represent average values and standard deviations based on four independent experiments. (B) H1299 cells were infected with HAdV-C5 at a multiplicity of 20 FFU/cell, and treated with the depicted concentrations of ATO at 2 h.p.i.. Viral particles were harvested 48 h.p.i. and virus yield was determined by quantitative E2A immunofluorescence staining in 293 cells. Bar charts represent average values and standard deviations based on three independent experiments. Statistically significant differences were determined using a two-sided Welch's t-test. *: P ≤ 0.05, **: P ≤ 0.01, ***: P ≤ 0.001, ****: P ≤ 0.0001. • Figure 2: ATO induces a dose dependent reduction of HAdV infectivity with minor effects on cell viability (cf. Example 2). […] 24 or 48 h.p.i., cell viability was assessed using the Promega CellTiter-Blue Cell Viability Assay system, prior to fixation with 4 % PFA and cells were double labeled with mAb B6-8 (α-E2A) and pAb L133 (α-Capsid). Primary antibodies were detected using Alexa488 (E2A, green) and Alexa647 (Capsid, red) conjugated secondary antibodies. Fluorescence intensity was measured using a Tecan Infinite 200M plate reader using an excitation and emission wavelength of 488 and 520nm for Alexa488 and 640 and 670nm for Alexa647 respectively. Fluorescence intensity was normalized to untreated, infected cells at 48h p.i.. xy charts represent average values and standard deviations based on three independent experiments measured in triplicates. […]

[1] = test system: eGFP expressing HAdV-C5 based first generation adenoviral vector; assay: GFP fluorescence of non-replicating adenoviral vector in H1299 cells (Fig. 2C); type: cell-based; conditions: for GFP expression compared to the untreated control: 8µM ATO; for IC50: read-out: IC50 (GFP expression)
Description: as §1, with “triplicates. (B) H1299 cells were infected with an HAdV-C5 delta E3 virus, encoding a CMV promoter driven eGFP expression cassette, at a multiplicity of 20FFU/cell and treated with the depicted concentrations of ATO at 2h p.i.; 24 or 48 h p.i. cell viability was assessed using the Promega CellTiter-Blue Cell Viability Assay system, and GFP fluorescence intensity was measured using a Tecan Infinite 200M plate reader using an excitation and emission wavelength of 488 and 520nm. Fluorescence intensity was normalized to untreated, infected cells at 48h p.i.; xy charts represent average values and standard deviations based on three independent experiments measured in triplicates.” for “triplicates.”

[2] = test system: HAdV-C5 delta E3 virus, encoding a CMV promoter driven eGFP expression cassette; assay: GFP fluorescence of replication competent GFP-expressing virus in H1299 cells (Fig. 2B); type: cell-based; conditions: for IC50: read-out: IC50 (HAdV infection, GFP)
Description: • Figure 1: ATO efficiently reduces HAdV infectivity (cf. Example 1). H1299 cells were infected with HAdV-C5 wt at a multiplicity of 5 FFU/cell, treated with the depicted concentrations of ATO at 2 h.p.i., fixed 48 h.p.i. with 4 % PFA and double labeled with mAb B6-8 (α-E2A) and pAb L133 (α-Capsid). Primary antibodies were detected using Alexa488 (E2A, green) and Alexa568 (Capsid, red) conjugated secondary antibodies. (A) The number of E2A and Capsid expressing cells, respectively, was counted in n=40 overview pictures (not shown), normalized to untreated, infected cells, and represented in bar charts. Bar charts represent average values and standard deviations based on four independent experiments. (B) H1299 cells were infected with HAdV-C5 at a multiplicity of 20 FFU/cell, and treated with the depicted concentrations of ATO at 2 h.p.i.. Viral particles were harvested 48 h.p.i. and virus yield was determined by quantitative E2A immunofluorescence staining in 293 cells. Bar charts represent average values and standard deviations based on three independent experiments. Statistically significant differences were determined using a two-sided Welch's t-test. *: P ≤ 0.05, **: P ≤ 0.01, ***: P ≤ 0.001, ****: P ≤ 0.0001. • Figure 2: ATO induces a dose dependent reduction of HAdV infectivity with minor effects on cell viability (cf. Example 2). (A) H1299 cells were infected with HAdV-C5 wt at a multiplicity of 20 FFU/cell and treated with the depicted concentrations of ATO at 2 h.p.i.. 24 or 48 h.p.i., cell viability was assessed using the Promega CellTiter-Blue Cell Viability Assay system, prior to fixation with 4 % PFA and cells were double labeled with mAb B6-8 (α-E2A) and pAb L133 (α-Capsid). Primary antibodies were detected using Alexa488 (E2A, green) and Alexa647 (Capsid, red) conjugated secondary antibodies. Fluorescence intensity was measured using a Tecan Infinite 200M plate reader using an excitation and emission wavelength of 488 and 520nm for Alexa488 and 640 and 670nm for Alexa647 respectively. Fluorescence intensity was normalized to untreated, infected cells at 48h p.i.. xy charts represent average values and standard deviations based on three independent experiments measured in triplicates. (B) H1299 cells were infected with an HAdV-C5 delta E3 virus, encoding a CMV promoter driven eGFP expression cassette, at a multiplicity of 20FFU/cell and treated with the depicted concentrations of ATO at 2h p.i.; 24 or 48 h p.i. cell viability was assessed using the Promega CellTiter-Blue Cell Viability Assay system, and GFP fluorescence intensity was measured using a Tecan Infinite 200M plate reader using an excitation and emission wavelength of 488 and 520nm. Fluorescence intensity was normalized to untreated, infected cells at 48h p.i.; xy charts represent average values and standard deviations based on three independent experiments measured in triplicates. (C) H1299 cells were infected with an eGFP expressing HAdV-C5 based first generation adenoviral vector at a multiplicity of 20 FFU/cell and treated with the depicted concentrations of ATO at 2h p.i.; 24 or 48h p.i., cell viability was assessed using the Promega CellTiter-Blue Cell Viability Assay system, and GFP fluorescence intensity was measured using a Tecan Infinite 200M plate reader using an excitation and emission wavelength of 488 and 520nm. […]

PML-NBs = assay: Immunofluorescence count of PML-NBs per cell in uninfected H1299 cells (Fig. 4A); type: cell-based, Human; conditions: non-infected cells
HAdV-C5 wt [3] = assay: Western blot of viral protein expression (Fig. 3C); type: cell-based; conditions: 1 and 2µM ATO
HAdV-C5 wt [4] = assay: Immunofluorescence count of HAdV replication centers marked by E2A (Fig. 4B); type: cell-based; conditions: HAdV infected cells
HAdV-C5 wt [5] = assay: Quantitative RT-PCR of viral E1A and Hexon mRNA (Fig. 3B); type: cell-based; conditions: 2µM ATO, 48h

PML-NBs, sequence (P29590 1-418 limits assumed): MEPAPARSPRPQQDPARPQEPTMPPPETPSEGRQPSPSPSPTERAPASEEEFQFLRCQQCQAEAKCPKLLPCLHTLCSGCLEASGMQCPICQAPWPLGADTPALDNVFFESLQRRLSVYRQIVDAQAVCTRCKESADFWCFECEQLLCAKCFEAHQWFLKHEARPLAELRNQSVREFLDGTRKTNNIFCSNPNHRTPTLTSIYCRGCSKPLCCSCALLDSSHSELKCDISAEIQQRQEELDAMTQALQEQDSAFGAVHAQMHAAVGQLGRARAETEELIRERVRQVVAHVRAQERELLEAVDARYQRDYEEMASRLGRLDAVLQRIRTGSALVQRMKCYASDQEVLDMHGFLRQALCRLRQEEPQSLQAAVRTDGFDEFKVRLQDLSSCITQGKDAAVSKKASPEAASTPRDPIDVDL

## arsenic trioxide [ATO]
HAdV-C5; 1µM ATO, H1299, 20 FFU/cell, harvested 48 h.p.i.
  reduction of virus yield: 80%
HAdV-C5; 2µM ATO, compared to non-treated infected control cells
  virus particle synthesis / virus yield: abolished; also recorded: completely abolishing
HAdV-C5; ATO concentration not given
  reduction in virus yield: 80%
[1]; 24h p.i.
  GFP expression compared to the untreated control: Less than 50%
  IC50: 6.49 µM
[1]; 48h p.i.
  GFP expression compared to the untreated control: Less than 50%
  IC50: 10.2 µM
[2]; 2µM ATO, 48h p.i.
  inhibition of adenoviral infection: more than 50%
[2]; 4µM ATO, 24h p.i.
  inhibition of adenoviral infection: up to 75%
[2]; 4µM ATO, 48h p.i.
  inhibition of adenoviral infection: more than 75%
[2]; 24h p.i.
  IC50: 1.61 µM
[2]; 48 h p.i.
  IC50: 1.18 µM
PML-NBs
  number of PML-NBs: significantly decreases
HAdV-C5 wt [3]
  E1B-55K viral protein: decrease
  E4orf6 viral protein: decrease
  expression of the early viral protein E2A: decrease
  late capsid and capsid associated proteins: decrease
HAdV-C5 wt [3]; 48 h.p.i.
  viral early and late protein synthesis: significantly impaired
HAdV-C5 wt [4]
  RC in number (replication centers): significant reduction
HAdV-C5 wt [5]
  inhibition of Hexon viral mRNA expression: 60%
